# Test results taken from patent publication US20140228287A1, “1-[(3-CYANO-PYRIDIN-2-YL)METHYL]-3-METHYL-7-(2-BUTYN-1-YL)-8-[3-(R)-AMINO-PIPERIDIN-1-YL]-AXANTHINE FOR THE TREATMENT OF A METABOLIC DISORDER OF A PREDOMINANTLY CARNIVOROUS NON-HUMAN ANIMAL” (BOEHRINGER INGELHEIM VETMEDICA GMBH, priority 2010, published 2014).
# Counter-ions that a name gives are not always drawn.
# Target: T1, plasma DPP-4 (Felis catus, UniProt Q9N2I7)
# T1 construct: from tissue; host or cells: cat plasma (3 cats), diluted 70-fold
# Experiment: Inhibition of DPP-4 in cat plasma (in vitro)
# Assay type: biochemical
# Method: Plasma obtained from 3 different cats and one Wistar rat as control were each incubated with a range of concentrations of 1-[(3-cyano-pyridin-2-yl)methyl]-3-methyl-7-(2-butyn-1-yl)-8-[3-(R)-amino-piperidin-1-yl]-xanthine monohydrochloride. Plasma DPP-4 activity was measured in the following way (which is also described in Eckhard et al. (2007), J. Med. Chem., Vol. 50, 6450-6453, Supporting Information).
# Rat and cat plasma was used for ex vivo measurement of DDP-4 activity. Blood was collected in EDTA tubes and subjected to centrifugation. The resultant supernatant was aliquoted and frozen. Plasma DPP-4 activity was assayed after dilution (140-fold for rat plasma; 70-fold for cat plasma) with assay buffer (100 mM Tris-HCl, 100 mM NaCl, pH 7.8; compound stock solutions in dimethylsulfoxide (DMSO), final DMSO concentration in the assay 1%) prior to use.
# The assay itself was initiated by mixing 50 μl of diluted plasma with 50 μl of diluted substrate (Ala-Pro-AFC) and performed in black flat-bottom 96-well plates. The plates were then incubated at room temperature for 1 h and fluorescence was measured at excitation/emission wavelengths of 405/535 nm. Data analysis was performed by calculating the fluorescence in the presence of the test compound compared to the fluorescence of the vehicle control after subtracting the background fluorescence.
# From a plot of concentration against activity (equivalent to fluorescence units) kinetic data could be collected, e.g. the half-maximal inhibitory concentration (IC50) of the tested compound in the different animals, which data are given in the following Table 2.
# T1 sequence (Q9N2I7 38-765 limits assumed): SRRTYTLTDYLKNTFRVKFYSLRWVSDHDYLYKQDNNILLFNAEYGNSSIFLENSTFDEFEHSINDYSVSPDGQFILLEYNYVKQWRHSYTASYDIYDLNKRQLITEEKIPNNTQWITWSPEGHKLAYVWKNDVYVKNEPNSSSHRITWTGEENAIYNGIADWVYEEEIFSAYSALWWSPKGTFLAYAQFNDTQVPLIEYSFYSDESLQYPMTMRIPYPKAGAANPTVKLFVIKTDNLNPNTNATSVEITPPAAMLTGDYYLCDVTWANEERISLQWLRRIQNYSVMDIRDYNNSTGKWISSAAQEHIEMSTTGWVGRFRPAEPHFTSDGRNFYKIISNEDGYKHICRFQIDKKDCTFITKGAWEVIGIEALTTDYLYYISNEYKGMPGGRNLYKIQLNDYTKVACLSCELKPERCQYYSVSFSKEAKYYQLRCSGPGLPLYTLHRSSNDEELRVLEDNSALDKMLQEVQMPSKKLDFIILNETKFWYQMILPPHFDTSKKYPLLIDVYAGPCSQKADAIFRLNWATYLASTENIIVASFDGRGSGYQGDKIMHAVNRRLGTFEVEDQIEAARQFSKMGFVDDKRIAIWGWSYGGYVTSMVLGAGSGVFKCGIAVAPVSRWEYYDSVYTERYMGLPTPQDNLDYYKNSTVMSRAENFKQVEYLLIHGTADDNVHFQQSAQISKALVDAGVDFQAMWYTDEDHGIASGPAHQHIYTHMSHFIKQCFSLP
compound,measurement,setting,value
CC#CCn1c(N2CCC[C@@H](N)C2)nc2c1c(=O)n(Cc1ncccc1C#N)c(=O)n2C [1-[(3-cyano-pyridin-2-yl)methyl]-3-methyl-7-(2-butyn-1-yl)-8-[3-(R)-amino-piperidin-1-yl]-xanthine monohydrochloride],IC50,cat 1 plasma,1.94 nM
same,hillslope,cat 1 plasma,−0.7518
same,IC50,cat 2 plasma,1.45 nM
same,hillslope,cat 2 plasma,−0.7102
same,IC50,cat 3 plasma,1.84 nM
same,hillslope,cat 3 plasma,−0.7615
